Experimental data reported in PubChem BioAssay AID1963435 (Molecular Pharmacology Branch, DTP, NCI, 2024).

Test system: PANC-1 complex spheroid growth, percent test/control
Experiment: Anticancer human tumor PANC-1 cell line growth inhibition [Asc];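 also: spheroids exposed to agents for 7 days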;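 as to viability, T/C: percent viability relative to DMSO vehicle wells taken as 100%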
Conditions: for IC50: curve of first compound; for viability, T/C: stronger effect = lower value
How it was run: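 Complex spheroids combining tumor cells with HUVEC endothelial cells and human MSCs, at 37 degrees C, 5% CO2; agents tested alone or combined, half-log dilutions from at or near clinical Cmax, or 10 microM if Cmax unknown.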

**Q.** What does the source list for `Cc1nc(N2CCC3(CC2)COC(C)C3N)c(CO)nc1Sc1ccnc(N)c1Cl` (centres undefined) + Cc1c(S(C)(=O)=O)c(-c2cc(F)cc(N3CCN(c4ccc(NS(=O)(=O)c5ccc(NC(CCN6CCC(C(=O)OCCCP(=O)(O)O)CC6)CSc6ccccc6)c(S(=O)(=O)C(F)(F)F)c5)cc4)CC3)c2)c(-c2ccc(Cl)cc2)n1C(C)C?
**A.** IC50 (second compound 0.0316 µM): > 3000 nM; IC50 (second compound 0.1 µM): > 3000 nM; IC50 (second compound 0.316 µM): > 3000 nM; IC50 (second compound 1 µM): > 3000 nM; IC50 (second compound 3.16 µM): > 3000 nM; IC50 (second compound 10 µM): > 3000 nM; viability, T/C (second compound 0.0316 µM, first compound 0.00949 µM): 87.6%; viability, T/C (second compound 0.0316 µM, first compound 0.03 µM): 96.6%; viability, T/C (second compound 0.0316 µM, first compound 0.0949 µM): 88.2%; viability, T/C (second compound 0.0316 µM, first compound 0.3 µM): 94.1%; viability, T/C (second compound 0.0316 µM, first compound 0.949 µM): 89.5%; viability, T/C (second compound 0.0316 µM, first compound 3 µM): 95.2%; viability, T/C (second compound 0.1 µM, first compound 0.00949 µM): 92.8%; viability, T/C (second compound 0.1 µM, first compound 0.03 µM): 88.3%; viability, T/C (second compound 0.1 µM, first compound 0.0949 µM): 83.3%; viability, T/C (second compound 0.1 µM, first compound 0.3 µM): 90.1%; viability, T/C (second compound 0.1 µM, first compound 0.949 µM): 87.8%; viability, T/C (second compound 0.1 µM, first compound 3 µM): 84.7%; viability, T/C (second compound 0.316 µM, first compound 0.00949 µM): 103%; viability, T/C (second compound 0.316 µM, first compound 0.03 µM): 93.4%; viability, T/C (second compound 0.316 µM, first compound 0.0949 µM): 89.8%; viability, T/C (second compound 0.316 µM, first compound 0.3 µM): 87.6%; viability, T/C (second compound 0.316 µM, first compound 0.949 µM): 91.8%; viability, T/C (second compound 0.316 µM, first compound 3 µM): 86.7%; viability, T/C (second compound 1 µM, first compound 0.00949 µM): 102%; viability, T/C (second compound 1 µM, first compound 0.03 µM): 91.8%; viability, T/C (second compound 1 µM, first compound 0.0949 µM): 85.9%; viability, T/C (second compound 1 µM, first compound 0.3 µM): 84.5%; viability, T/C (second compound 1 µM, first compound 0.949 µM): 88.2%; viability, T/C (second compound 1 µM, first compound 3 µM): 85.5%; viability, T/C (second compound 3.16 µM, first compound 0.00949 µM): 101%; viability, T/C (second compound 3.16 µM, first compound 0.03 µM): 94.5%; viability, T/C (second compound 3.16 µM, first compound 0.0949 µM): 86.2%; viability, T/C (second compound 3.16 µM, first compound 0.3 µM): 92.9%; viability, T/C (second compound 3.16 µM, first compound 0.949 µM): 84.6%; viability, T/C (second compound 3.16 µM, first compound 3 µM): 77.8%; viability, T/C (second compound 10 µM, first compound 0.00949 µM): 175%; viability, T/C (second compound 10 µM, first compound 0.03 µM): 177%; viability, T/C (second compound 10 µM, first compound 0.0949 µM): 161%; viability, T/C (second compound 10 µM, first compound 0.3 µM): 161%; viability, T/C (second compound 10 µM, first compound 0.949 µM): 164%; viability, T/C (second compound 10 µM, first compound 3 µM): 147%

**Q.** Which results are given for `Cn1ncnc1[C@H]1c2n[nH]c(=O)c3cc(F)cc(c23)N[C@@H]1c1ccc(F)cc1` + Cc1c(S(C)(=O)=O)c(-c2cc(F)cc(N3CCN(c4ccc(NS(=O)(=O)c5ccc(NC(CCN6CCC(C(=O)OCCCP(=O)(O)O)CC6)CSc6ccccc6)c(S(=O)(=O)C(F)(F)F)c5)cc4)CC3)c2)c(-c2ccc(Cl)cc2)n1C(C)C?
**A.** IC50 (second compound 0.0316 µM): > 100 nM; IC50 (second compound 0.1 µM): > 100 nM; IC50 (second compound 0.316 µM): > 100 nM; IC50 (second compound 1 µM): > 100 nM; IC50 (second compound 3.16 µM): > 100 nM; IC50 (second compound 10 µM): > 100 nM; viability, T/C (second compound 0.0316 µM, first compound 0.000316 µM): 101%; viability, T/C (second compound 0.0316 µM, first compound 0.001 µM): 88.4%; viability, T/C (second compound 0.0316 µM, first compound 0.00316 µM): 98.5%; viability, T/C (second compound 0.0316 µM, first compound 0.01 µM): 102%; viability, T/C (second compound 0.0316 µM, first compound 0.0316 µM): 110%; viability, T/C (second compound 0.0316 µM, first compound 0.1 µM): 101%; viability, T/C (second compound 0.1 µM, first compound 0.000316 µM): 96.7%; viability, T/C (second compound 0.1 µM, first compound 0.001 µM): 103%; viability, T/C (second compound 0.1 µM, first compound 0.00316 µM): 93.5%; viability, T/C (second compound 0.1 µM, first compound 0.01 µM): 108%; viability, T/C (second compound 0.1 µM, first compound 0.0316 µM): 108%; viability, T/C (second compound 0.1 µM, first compound 0.1 µM): 103%; viability, T/C (second compound 0.316 µM, first compound 0.000316 µM): 109%; viability, T/C (second compound 0.316 µM, first compound 0.001 µM): 108%; viability, T/C (second compound 0.316 µM, first compound 0.00316 µM): 106%; viability, T/C (second compound 0.316 µM, first compound 0.01 µM): 106%; viability, T/C (second compound 0.316 µM, first compound 0.0316 µM): 104%; viability, T/C (second compound 0.316 µM, first compound 0.1 µM): 110%; viability, T/C (second compound 1 µM, first compound 0.000316 µM): 105%; viability, T/C (second compound 1 µM, first compound 0.001 µM): 99.3%; viability, T/C (second compound 1 µM, first compound 0.00316 µM): 105%; viability, T/C (second compound 1 µM, first compound 0.01 µM): 106%; viability, T/C (second compound 1 µM, first compound 0.0316 µM): 103%; viability, T/C (second compound 1 µM, first compound 0.1 µM): 109%; viability, T/C (second compound 3.16 µM, first compound 0.000316 µM): 105%; viability, T/C (second compound 3.16 µM, first compound 0.001 µM): 102%; viability, T/C (second compound 3.16 µM, first compound 0.00316 µM): 107%; viability, T/C (second compound 3.16 µM, first compound 0.01 µM): 114%; viability, T/C (second compound 3.16 µM, first compound 0.0316 µM): 112%; viability, T/C (second compound 3.16 µM, first compound 0.1 µM): 93.5%; viability, T/C (second compound 10 µM, first compound 0.000316 µM): 160%; viability, T/C (second compound 10 µM, first compound 0.001 µM): 176%; viability, T/C (second compound 10 µM, first compound 0.00316 µM): 147%; viability, T/C (second compound 10 µM, first compound 0.01 µM): 167%; viability, T/C (second compound 10 µM, first compound 0.0316 µM): 169%; viability, T/C (second compound 10 µM, first compound 0.1 µM): 139%
